This is an account of results in US8841463B2, “Cathepsin C inhibitors” (GlaxoSmithKline Intellectual Property Development Limited, priority 2011, dated 2014).

The structures appear in SMILES notation. Where a name gives a salt, the structure may show the parent alone.

For this experiment, the target named is recombinant human cathepsin C (Homo sapiens, UniProt P53634). Nature of the experiment: Recombinant Cathepsin C in vitro assay (cleavage of fluorogenic substrate H-Ser-Tyr-AMC). It counts as biochemical. To be noted: average of two experiments; one hour preincubation, pH 5.5, room temperature; read-out: concentration giving 50% cathepsin C inhibition. The method, then: B. Recombinant Cathepsin C In Vitro Assay:
The activity of recombinant human cathepsin C was measured by the cleavage of a fluorogenic substrate, H-Ser-Tyr-AMC. Briefly, 24 pM cathepsin C was incubated with test compound (e.g. inhibitor) in a buffer consisting of 50 mM sodium acetate, 30 mM sodium chloride, 1 mM CHAPS, 1 mM dithiothreitol, 1 mM EDTA, pH 5.5 at room temperature for one hour. After one hour of incubating test compound with cathepsin C, the activity assay was initiated by the addition of an equal volume of 0.010 mM H-Ser-Tyr-AMC in the same buffer. After one hour, the activity assay was stopped by the addition of ⅕ volume of 100 μM E-64. The reaction product was measured on a fluorescence reader set at an excitation wavelength of 360 nm and emission wavelength of 460 nm and equipped with a 400 nm dichroic mirror.

recombinant human cathepsin C, sequence (P53634 25-463): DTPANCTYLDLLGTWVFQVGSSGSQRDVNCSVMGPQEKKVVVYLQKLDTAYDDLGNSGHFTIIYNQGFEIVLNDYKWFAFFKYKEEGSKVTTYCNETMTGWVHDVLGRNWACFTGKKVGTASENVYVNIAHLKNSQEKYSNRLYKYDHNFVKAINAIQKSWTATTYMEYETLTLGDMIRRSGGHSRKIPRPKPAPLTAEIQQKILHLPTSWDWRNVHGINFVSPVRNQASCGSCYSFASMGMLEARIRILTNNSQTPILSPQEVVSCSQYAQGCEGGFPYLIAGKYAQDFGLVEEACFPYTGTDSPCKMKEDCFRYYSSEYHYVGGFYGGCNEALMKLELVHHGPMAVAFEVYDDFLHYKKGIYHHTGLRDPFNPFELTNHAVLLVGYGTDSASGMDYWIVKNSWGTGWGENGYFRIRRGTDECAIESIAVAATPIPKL

`CC[C@@H](/C=C/C(=O)N1CCc2ccccc21)NC(=O)C1(N)CCOCC1` [Example 1, 4-amino-N-[(1S,2E)-4-(2,3-dihydro-1H-indol-1-yl)-1-ethyl-4-oxo-2-buten-1-yl]tetrahydro-2H-pyran-4-carboxamide hydrochloride]: the IC50 is less than 1 nM.
Consider `CC(C)C[C@@H](/C=C/C(=O)N1CCc2ccccc21)NC(=O)C1(N)CCOCC1` [Example 2, 4-amino-N-[(1S,2E)-4-(2,3-dihydro-1H-indol-1-yl)-1-(2-methylpropyl)-4-oxo-2-buten-1-yl]tetrahydro-2H-pyran-4-carboxamide hydrochloride], for which the IC50 is less than 1 nM.
